Measured values taken from patent US20080261994A1, “CYCLOPROPANE COMPOUNDS AND PHARMACEUTICAL USE THEREOF” (Japan Tobacco Inc., priority 2003, published 2008).
Read-outs that look alike come from different tables or passages of the source.

Columns and labels:
Assay type in all cases: biochemical
Recombinant Human MMP-13 = molecular target: T1, Recombinant Human MMP-13 (Homo sapiens, UniProt P45452); assay: MMP-13 inhibitory activity (MMP-13 specific fluorescent substrate with quencher)
T1 construct: purchased R&D systems 511-MM
Method in brief: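 IC50 (μM) derived from % inhibition, normalised to wells without enzyme and without inhibitor, fluorescence read at 325/405 nm. Enzyme and compound preceded addition of the quenched 7-MCA…DPA substrate; Tris-HCl buffer, 25 °C for 1 h, acetic-acid stop.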

MMP-1 = molecular target: T2, MMP-1 (Homo sapiens, UniProt P03956); assay: MMP-1 inhibitory action (Type I collagen Activity Measurement kit, FITC-labeled collagen type I)
T2 sequence (P03956 100-469): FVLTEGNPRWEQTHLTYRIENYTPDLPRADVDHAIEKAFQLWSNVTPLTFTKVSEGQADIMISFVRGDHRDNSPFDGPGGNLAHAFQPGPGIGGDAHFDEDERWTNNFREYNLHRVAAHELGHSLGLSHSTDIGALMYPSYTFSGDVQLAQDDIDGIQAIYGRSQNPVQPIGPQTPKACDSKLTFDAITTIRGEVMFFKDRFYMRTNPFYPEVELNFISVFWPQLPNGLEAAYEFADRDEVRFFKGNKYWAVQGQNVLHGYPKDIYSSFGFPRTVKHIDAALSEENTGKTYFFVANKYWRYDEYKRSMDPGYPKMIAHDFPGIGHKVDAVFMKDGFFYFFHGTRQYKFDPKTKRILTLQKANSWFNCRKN

aggrecanase-1 = molecular target: T3, aggrecanase-1 (Homo sapiens, UniProt O75173); assay: Aggrecanase-1 inhibitory action (Particle Assay, GAG release from aggrecan-containing polyacrylamide particles)
T3 sequence (O75173 213-837): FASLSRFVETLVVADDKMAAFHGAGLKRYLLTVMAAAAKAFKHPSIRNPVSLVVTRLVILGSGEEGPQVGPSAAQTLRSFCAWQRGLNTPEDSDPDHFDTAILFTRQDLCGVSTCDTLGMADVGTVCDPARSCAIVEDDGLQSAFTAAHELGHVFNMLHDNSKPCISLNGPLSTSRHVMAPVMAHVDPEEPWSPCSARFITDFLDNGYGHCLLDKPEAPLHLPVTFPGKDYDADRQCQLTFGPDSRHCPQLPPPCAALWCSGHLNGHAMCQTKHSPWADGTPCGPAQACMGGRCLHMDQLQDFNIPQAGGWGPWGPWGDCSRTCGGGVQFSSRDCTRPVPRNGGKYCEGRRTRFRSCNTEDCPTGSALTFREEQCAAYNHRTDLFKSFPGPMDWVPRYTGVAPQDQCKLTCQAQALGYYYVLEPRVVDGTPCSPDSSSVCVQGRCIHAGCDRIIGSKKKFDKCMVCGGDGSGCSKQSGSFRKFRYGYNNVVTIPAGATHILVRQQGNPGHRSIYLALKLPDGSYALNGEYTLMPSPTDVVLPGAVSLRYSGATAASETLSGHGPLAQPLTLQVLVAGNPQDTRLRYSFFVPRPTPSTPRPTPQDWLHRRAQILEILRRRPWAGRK
Method in brief: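 Readout was dimethylmethylene blue absorbance (595 nm) of glycosaminoglycan liberated into supernatant, calibrated with whale chondroitin sulfate. Substrate was aggrecan in polyacrylamide particles, digested 15 h at 37° C in Tris-HCl; TC50 (μM) derived from inhibition relative to no-enzyme and no-inhibitor controls.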

[1] = Experimental Example 3, read-out: IC50 MMP13
[2] = Experimental Example 2, read-out: IC50 MMP1
[3] = Experimental Example 1, read-out: IC50 AG1
[4] = Recombinant Human MMP-13, fluorescent substrate, 25° C. for 1 h, read-out: IC50 MMP13 (Experimental Example 3)
[5] = MMP-1 inhibitory action, FITC-labeled collagen type I, 37° C. for 3 hr, read-out: IC50 MMP1 (Experimental Example 2)
[6] = aggrecanase-1 inhibitory action, read-out: IC50 AG1 (Experimental Example 1)

Structure (SMILES)	IC50 (Recombinant Human MMP-13; [1]) [nM]	IC50 (MMP-1; [2]) [nM]	IC50 (aggrecanase-1; [3]) [nM]	IC50 (Recombinant Human MMP-13; [4]) [nM]	IC50 (MMP-1; [5]) [nM]	IC50 (aggrecanase-1; [6]) [nM]
CC(F)(F)c1cc(-c2ccc(S(=O)(=O)N[C@@]3(C(=O)O)C[C@@H]3c3ccccc3)s2)ns1 [Example 2-124]				< 100	≥ 1000	< 100
CC(=O)OCCc1cccc(C2CC2(NS(=O)(=O)c2ccc(-c3ccc(Cl)cc3)s2)C(=O)O)c1 (stereo not drawn) [Example 2-108]				< 100	≥ 1000	< 100
O=C(NCCO)c1ccccc1C1CC1(NS(=O)(=O)c1ccc(-c2ccc(Cl)cc2)s1)C(=O)O (stereo not drawn) [Example 2-72]				< 1000	≥ 10000	< 100
O=C(O)[C@]1(NS(=O)(=O)c2ccc(-c3noc(C(F)(F)F)n3)s2)C[C@@H]1c1ccccc1 [Example 2-44]				≥ 1000	≥ 10000	≥ 1000
C[C@@H]1[C@H](c2ccccc2)[C@]1(NS(=O)(=O)N1CCN(c2ccc(C(F)(F)F)cn2)CC1)C(=O)O [Example 2-5, (1S,2R,3R)-2-methyl-3-phenyl-1-[4-(5-trifluoromethyl-pyridin-2-yl)-piperazine-1-sulfonylamino]-cyclopropanecarboxylic acid]				< 100	≥ 1000	< 1000
CCC(=O)c1ccc(S(=O)(=O)NC2(C(=O)O)CC2c2ccccc2)s1 (stereo not drawn) [Example 2-116]				≥ 10000	≥ 10000	≥ 10000
O=C(O)[C@]1(NS(=O)(=O)c2ccc(-c3cc(C(F)(F)C(F)(F)F)on3)s2)C[C@@H]1c1ccccc1 [Example 2-111]				< 1000	≥ 10000	≥ 1000
CN(C)c1cccc(C2CC2(NS(=O)(=O)c2ccc(-c3cc(C(F)(F)F)on3)s2)C(=O)O)c1 (stereo not drawn) [Example 2-228]				< 1000	≥ 1000	< 1000
O=C(O)C1(NS(=O)(=O)N2CCn3c(nnc3-c3ccccc3)C2)CC1c1ccccc1 (stereo not drawn) [Example 2-126]				≥ 10000	≥ 10000	≥ 10000
CC(C)(O)COc1ccccc1C1CC1(NS(=O)(=O)c1ccc(-c2ccc(Cl)cc2)s1)C(=O)O (stereo not drawn) [Example 2-25]				< 1000	≥ 10000	< 100
O=C(O)C1(NS(=O)(=O)c2ccc(-c3ccc(Cl)cc3)cc2)CC1c1cccc(OCc2cccnc2)c1 (stereo not drawn) [Example 1-76]				< 100	≥ 10000	< 1000
O=C(O)C1(NS(=O)(=O)c2ccc(-c3ccc(Cl)cc3)s2)CC1(CO)c1ccccc1 (stereo not drawn) [Example 2-229]				< 1000	≥ 10000	< 1000
C[C@]1(c2ccccc2)C[C@@]1(NS(=O)(=O)c1ccc(-c2ccc(Cl)cc2)s1)C(=O)O [Example 2-101]				< 1000	≥ 1000	< 100
CN(Cc1cccnc1)c1cccc([C@H]2C[C@@]2(NS(=O)(=O)c2ccc(-c3ccc(Cl)cc3)s2)C(=O)O)c1 [Example 2-183]				< 100	≥ 1000	< 100
O=C(O)c1cccc([C@H]2C[C@@]2(NS(=O)(=O)c2ccc(-c3ccc(Cl)cc3)s2)C(=O)O)c1 [Example 2-175]				< 1000	≥ 1000	< 100
Cn1nc(-c2ccc(S(=O)(=O)NC3(C(=O)O)CC3c3ccccc3)s2)cc1C(F)(F)F (stereo not drawn) [Example 2-16]				< 1000	≥ 10000	≥ 10000
O=C(c1ccccc1C1CC1(NS(=O)(=O)c1ccc(-c2ccc(Cl)cc2)s1)C(=O)O)N1CCOCC1 (stereo not drawn) [Example 2-76]				< 1000	≥ 10000	< 100

The remaining lines, values ahead:

IC50 (Recombinant Human MMP-13; [1]) [nM]	IC50 (MMP-1; [2]) [nM]	IC50 (aggrecanase-1; [3]) [nM]	IC50 (Recombinant Human MMP-13; [4]) [nM]	IC50 (MMP-1; [5]) [nM]	IC50 (aggrecanase-1; [6]) [nM]	Structure (SMILES)
< 100	≥ 1000	< 1000				CC1[C@H](c2ccccc2)[C@]1(NS(=O)(=O)N1CCN(c2ccc(Cl)cc2F)CC1)C(=O)O (stereo partly drawn) [Example 2-460]
< 100	< 100	< 100				O=C(NO)C1(NS(=O)(=O)c2ccc(-c3cc(C(F)(F)F)on3)s2)C2Cc3ccccc3C21 (stereo not drawn) [Example 2-495]
< 100	≥ 1000	< 1000				O=C(O)C1(NS(=O)(=O)c2ccc(-c3ccc(Cl)cc3)s2)C2CCc3ccccc3C21 (stereo not drawn) [Example 2-350]
< 100	< 1000	< 100				C[C@]1(c2ccc(F)cc2)C[C@@]1(NS(=O)(=O)c1ccc(-c2cc(C(F)(F)F)on2)s1)C(=O)O [Example 2-621]
< 100	≥ 1000	< 1000				CC1[C@H](c2ccccc2)[C@]1(NS(=O)(=O)c1ccc(-n2cc(Cl)cn2)nc1)C(=O)O (stereo partly drawn) [Example 2-557]
≥ 1000	≥ 1000	≥ 1000				CC1[C@H](c2ccccc2)[C@]1(NS(=O)(=O)N1CCc2ccccc2C1)C(=O)O (stereo partly drawn) [Example 2-535]
< 100	< 100	< 100				CC1[C@H](c2ccccc2)[C@]1(NS(=O)(=O)c1ccc(-n2cc(S(C)(=O)=O)cn2)s1)C(=O)O (stereo partly drawn) [Example 2-524]
< 1000	≥ 1000	≥ 1000				CC1[C@H](c2ccccc2)[C@]1(NS(=O)(=O)N1Cc2ccc(Cl)cc2C1)C(=O)O (stereo partly drawn) [Example 2-538]
< 1000	≥ 10000	< 1000				CC(C)S(=O)(=O)CC1(c2ccccc2)CC1(NS(=O)(=O)c1ccc(-c2ccc(Cl)cc2)s1)C(=O)O (stereo not drawn) [Example 2-348]
< 100	< 100	< 100				CCC1[C@H](c2ccccc2)[C@]1(NS(=O)(=O)c1ccc(-c2cc(C(F)(F)F)on2)s1)C(=O)O (stereo partly drawn) [Example 2-328]
			< 100	≥ 1000	< 1000	O=C(Nc1cccc(C2CC2(NS(=O)(=O)c2ccc(-c3cc(C(F)(F)F)on3)s2)C(=O)O)c1)N1CCOCC1 (stereo not drawn) [Example 2-250]
≥ 1000	≥ 10000	≥ 1000				C[C@]1(c2ccccc2)C[C@@]1(NS(=O)(=O)c1ccc(-c2ccc(Cl)c([N+](=O)[O-])c2)s1)C(=O)O [Example 2-477]
			< 1000	≥ 10000	< 1000	NCc1ccc(C2CC2(NS(=O)(=O)c2ccc(-c3ccc(Cl)cc3)s2)C(=O)O)cc1 (stereo not drawn) [Example 2-265]
≥ 1000	≥ 1000	≥ 1000				CC(C)CCN1CCN(S(=O)(=O)N[C@@]2(C(=O)O)C(C)[C@@H]2c2ccccc2)CC1 (stereo partly drawn) [Example 2-530]
< 1000	≥ 1000	< 100				CC1C(NS(=O)(=O)c2ccc(-c3cc(C(F)(F)F)on3)s2)(C(=O)O)C1(C)c1ccccc1 (stereo not drawn) [Example 2-598]
< 100	< 100	< 100				CC1C(c2ccccc2)C1(NS(=O)(=O)c1ccc(-c2cccc(CO)c2)s1)C(=O)O (stereo not drawn) [Example 2-525]
			< 100	≥ 1000	< 100	O=C(NCCc1cccc(C2CC2(NS(=O)(=O)c2ccc(-c3cc(C(F)(F)F)on3)s2)C(=O)O)c1)N1CCOCC1 (stereo not drawn) [Example 2-259]
< 1000	≥ 1000	< 1000				O=C(OCC1(c2ccccc2)CC1(NS(=O)(=O)c1ccc(-c2cc(C(F)(F)F)on2)s1)C(=O)O)N1CCOCC1 (stereo not drawn) [Example 2-306]
< 1000	≥ 1000	< 1000				O=C(O)C1(NS(=O)(=O)c2ccc(-c3ccc(Cl)cc3)s2)C2Cc3ccccc3C21 (stereo not drawn) [Example 2-431]
< 100	≥ 1000	< 1000				O=C1CCCN1c1cccc(C2CC2(NS(=O)(=O)c2ccc(-c3cc(C(F)(F)F)on3)s2)C(=O)O)c1 (stereo not drawn) [Example 2-276]
≥ 1000	≥ 1000	≥ 1000				CC1[C@H](c2ccccc2)[C@]1(NS(=O)(=O)N1CCN(c2ccc(Cl)cc2)C(=O)C1)C(=O)O (stereo partly drawn) [Example 2-502]
< 100	≥ 1000	< 1000				CCOC(=O)c1cnn(-c2ccc(S(=O)(=O)N[C@@]3(C(=O)O)C(C)[C@@H]3c3ccccc3)s2)c1 (stereo partly drawn) [Example 2-521]
